Assay results as given in patent publication US6946456B2, “Methods for treating cell proliferative disorders and viral infections” (Sloan-Kettering Institute for Cancer Research, priority 2000, dated 2005).
“Also recorded” adds a separate entry of the source.

What was measured:
[1] = test system: tumor cell lines with mutated Rb (MB-MDA 468, BT-549, DU145 and DU4475); test: Cell cycle analysis by flow cytometry of ethidium bromide-stained nuclei, tumor cell lines with mutated Rb; format: cell-based, human
Description: (§1) The human breast cancer cell lines MB-MDA 468, MCF7 and BT-549 and the colon carcinoma cell line, Colo 205, were obtained from ATCC. Breast cell lines were maintained in DME-F12 media and Colo 205 cells in RPMI; both media were supplemented with 5% fetal calf serum (BRL), 2 mM glutamine and 50 u/ml each of penicillin and streptomycin. All cells were incubated at 37° C. in 5% C02. Cells were treated for 24 hours with 250 ng/ml herbimycin A (Gibco) dissolved in DMSO or 435 nM of radicicol (Sigma). After treatment the […] and analyzed by flow cytometry. Nuclei were isolated for flow cytometry assays stained with ethidium bromide and analyzed using a Becton Dickinson fluorescence-activated cell sorter. Statistical data was obtained using Multicycle program software.

[2] = test system: Rb-wild type cells (MCF7 and Colo 205); test: Cell cycle analysis by flow cytometry of ethidium bromide-stained nuclei, Rb-wild type tumor cell lines; format: cell-based, human; settings: for cell cycle effect in tumor cell lines: 12 tumor cell lines examined, FIG. 1A
Description: as §1

MB-MDA 468 cells [3] = test: Immunofluorescent analysis (bisbenzimide, anti-α-tubulin, ACA/CREST); format: cell-based, human
Description: For immunofluorescent analysis, harvested cells were washed with PBS, fixed with methanol for 20 min at −20° C., washed again and blocked for 30 min with 2% BSA in PBS. Cells were then stained with anti-α-tubulin (Sigma) and anti-centromere protein antibodies (ACA/CREST) (gift of Dr. J. D. Rattner) in 2% BSA PBS for 1 hour. Following 3 washes with 0.5% BSA in PBS, cells were incubated with anti-human FITC conjugated, antimouse rhodamine conjugated antibodies (Molecular Probes) and 2 μg/ml bisbenzimide in 2% BSA in PBS for 45 min. Cells were then washed 4× with 0.5% BSA in PBS, resuspended in PBS and images captured by confocal microscopy or with a CCD camera. Images were then processed using Slidebook 3.0 and Adobe Photoshop program software.

[4] = test system: cyclin A-associated kinase activity; test: Immunoprecipitation and in vitro kinase assay (histone H1), cyclin A; format: cell-based, human; settings: MB-MDA 468, arrested cells compared to control cells
Description: (§2) Levels of mitotic cyclin expression and associated kinase activities in herbimycin arrested MB-MD468 cells were assessed using immunoblot analysis and in vitro kinase assays as described below. Cells cultured with herbimycin were enriched for mitotically arrested cells by using only the loosely adherent population in which the mitotic index was greater than 90%.
(§3) For immunoprecipitation, 100 μg of total protein was incubated with anticyclin A or anti-cyclin B1 (Santa Cruz) antibodies for 2 hours at 4° C. and then for 1 hour following the addition of protein A-Sephaliose. The immune complexes were washed 4× with lysis buffer and boiled in SDS-PAGE sample buffer for 5 min. Following SDS-PAGE, proteins were transferred onto Immobilon and analyzed by western blotting.
(§4) For in vitro kinase reactions, immune complexes were washed 4× with lysis buffer, 2× with kinase buffer (20 mM Tris pH 7.4, 7.5 mM MgCl2, 1 mM DTT) and incubated in 40 μl of kinase buffer containing 2 μg histone H1, 10 μCi [γ-^32P] ATP and 300 μM ATP for 10 min at 37° C. The reaction was stopped by the addition of SDS-PAGE sample buffer and boiled for 5 min. Proteins were resolved on SDS-PAGE, transferred onto Immobilon and exposed to autoradiography film or phosphoimager screen. Kinase activity was quantitated by FUJIX phosphoimager and MacBAS program software.

cyclin A expression = test: Immunoblot analysis of cyclin A expression; format: cell-based, human; settings: MB-MDA 468, arrested cells compared to control cells
Description: as §2
(§5) Immunoblot analysis of lysates from cells treated with DMSO, nocodazole or herbimycin were analyzed by Western blot analysis using anti-cyclin A or anti-B1 antibodies. Treated cells were harvested, washed with PBS and lysed in NP40 lysis buffer (50 mM Tris pH7.4, 1% NP40,150 mM NaCl, 40 mM NaF. 1 mM Na3VO4, 1 mM phenylmethylsulfonlylfluoride, and 10 μg/ml. each of leupeptin, aprotinin and soybean trypsin inhibitor) for 30 min on ice. Lysates were centrifuged at 15,000×g for 10 min and protein concentration determined by bicinchoninic acid protein assay (Pierce). Equal amounts of total protein were resolved by SDS-PAGE and transferred onto Immobilon PVDF membranes (Millipore) by electroblotting. Blots were blocked overnight in 5% nonfat milk in TBS-T (0.1% Tween-20 TBS, 10 mM Tris pH 7.4, 150 mM NaCl) at 4° C. and subsequently probed with either anti-cyclin A or cyclin B1 antibodies (Santa Cruz Biotechnology). Following incubation with HRP-conjugated secondary antibodies, proteins were detected by chemiluminescence (Amersham).

[5] = test system: Rb-wild type Colo 205 cells; test: Synchrony experiment: release from aphidicolin block, Colo 205; format: cell-based, human; settings: released into drug
Description: (§6) Nuclei were isolated for flow cytometry assays stained with ethidium bromide and analyzed using a Becton Dickinson fluorescence-activated cell sorter. Statistical data was obtained using Multicycle program software.
(§7) For synchrony experiments, cells were treated with 1 μg/ml aphidicolin (Sigma) for 18 hours, washed and replated in media containing DMSO or HA.

[6] = test system: cyclin B1-associated kinase activity; test: Immunoprecipitation and in vitro kinase assay (histone H1), cyclin B1; format: cell-based, human; settings: MB-MDA 468, loosely adherent mitotically arrested cells
Description: as §2, §3, §4

[7] = test system: primary human foreskin keratinocytes (HFK); test: Cell cycle analysis in primary human foreskin keratinocytes; format: cell-based; settings: 24 hours
Description: (§8) Primary human foreskin keratinocytes transfected with HPV-1 6 E6 and E7 were provided by Drs. H. Stöppler and R. Schlegel (Georgetown Univ.) and grown as previously described. Primary human foreskin keratinocytes or HPV 16 E6/E7 transfected human foreskin keratinoytes were treated with HA or DMSO for 24 hours and ethidium bromide stained-nuclei analyzed by flow cytometry as described above.

[8] = test system: Rb transfected MB-MDA 468 cells (468-7 and 468-19); test: Cell cycle analysis in Rb transfected MB-MDA 468 cells; format: cell-based, human
Description: (§9) To further confirm that the gene product of the Rb gene permits progression through mitosis in the presence of an HSP90 inhibitor, MB-MDA 468 cells were transfected with the plasmid pUHD1 0-3HGR containing full-length 4.7 kb human Rb cDNA. Rb transfectants were grown in DME-F12 media supplemented with 5% fetal calf serum (BRL), 2 mM glutamine and 50 μg/ml each of penicillin and streptomycin and 100 μg/ml hygromycin B (Boehringer Mannheim). To confirm the presence of the Rb gene product Western blot analysis was carried out using anti-Rb antibodies (Pharmingen) as described herein. Vector control, MB-MDA 468, and Rb transfected MB-MDA 468 cells were arrested with aphidicolin as described above. After release from aphidicolin arrest, transfected and non-transfected MM-MDA 468 cells were cultured in the presence of an ansamycin inhibitor as described in Example 1. Cell progression was monitored by flow cytometric analysis of ethidium bromide-stained nuclei as described above.

[9] = test system: Rb-negative MB-MDA 468 cells; test: Synchrony experiment: release from aphidicolin block, MB-MDA 468; format: cell-based, human; settings: released into drug
Description: as §6, §7, §9

MB-MDA 468 cells [10] = test: Mitotic index by bisbenzimide staining; format: cell-based, human
Description: For mitotic indices, cells were typsinized, washed with PBS and fixed with 3% paraformaidehyde in PBS for 20 min. Cells were then stained with 3 μg/ml bisbenzimide (Hoechst 33258; Sigma) for 15 min and examined under fluorescence microscopy. Mitosis was scored by the presence of condensed chromosomes.

[11] = test system: HPV 16 E6/E7 transfected human foreskin keratinocytes; test: Cell cycle analysis in HPV 16 E6/E7 transfected human foreskin keratinocytes; format: cell-based; settings: 24 hours
Description: as §8

[12] = test system: cyclin B1 protein expression; test: Immunoblot analysis of cyclin B1 expression; format: cell-based, human; settings: MB-MDA 468, compared to control
Description: as §2, §5

C=CCNC1=C2C[C@@H](C)C[C@H](OC)[C@H](O)[C@@H](C)/C=C(\C)[C@H](OC(N)=O)[C@@H](OC)/C=C\C=C(/C)C(=O)NC(=CC1=O)C2=O [17-AAG, 17-allylamino-(17)-demethoxygeldanamycin]
cell cycle profiles and mitotic phenotype compared with HA ([1]; Rb-dependent): same Rb-dependent cell cycle profiles and mitotic phenotype as observed with HA | cell cycle effect in tumor cell lines [2]: growth arrest in G1

C[C@@H]1C[C@H]2O[C@@H]2/C=C\C=C\C(=O)Cc2c(Cl)c(O)cc(O)c2C(=O)O1 [Radicicol]
chromosomal distribution in arrested MDA 468 cells (MB-MDA 468 cells [3]; MDA 468 cells, radicicol-arrested): chromosomes localized to the poles as well as strewn along the spindle | cell cycle effect in Rb-negative MDA-468 cells ([1]; MDA-468, 435 nM, 24 hours): accumulation of cells with 4n DNA content | cell cycle effect in Rb-positive cell lines ([2]; Colo205 and MCF7, 435 nM, 24 hours): induced G1 arrest

COC(=O)Nc1nc2ccc(C(=O)c3cccs3)cc2[nH]1 [nocodazole]
cyclin A-associated kinase activity [4]: slightly lower | cyclin A expression (cyclin A expression): slightly lower

CO[C@H]1[C@@H](OC)C[C@H](C)[C@@H](OC)C2=CC(=O)C=C(NC(=O)/C(C)=C/C=C\[C@H](OC)[C@@H](OC(N)=O)/C(C)=C/[C@@H]1C)C2=O [HA, herbimycin A]
chromosomes localized to the poles scored as double dots for ACA staining (MB-MDA 468 cells [3]; 77 chromosomes localized to the poles): 87% | spindle formation (α-tubulin staining) (MB-MDA 468 cells [3]; arrested Rb-negative cells): arrested cells contained bipolar spindles | chromosomal distribution (bisbenzimide and ACA/CREST staining) (MB-MDA 468 cells [3]; arrested Rb-negative cells, in most cells): chromosomes localized both to the poles and within the spindle | cell cycle effect in tumor cell lines with mutated Rb ([1]; MB-MDA 468, BT-549, DU145 and DU4475, 250 ng/ml, 24 hours, FIG. 1B): accumulation of cells with 4n DNA content | cell cycle effect in control transfectants ([1]; control transfectants (MB-MDA 468 cells)): accumulated with 4n DNA content | cell cycle progression after release from aphidicolin block [5]: complete mitosis; also recorded: progressed through G2 and mitosis and were arrested in the next G1 | cyclin B1-associated kinase activity, elevation compared to control [6]: 5 fold | cell cycle effect in primary HFK cells [7]: accumulate in G1 | cell cycle effect in Rb-transfectants ([8]; clones 468-7 and 468-19, asynchronous): increase in G1 and had no effect on G2/M; also recorded: no effect on G2/M in the Rb-transfectants and instead caused an increase in G1 | cell cycle progression of Rb transfectants after release from aphidicolin block ([8]; clones 468-7 and 468-19, released into drug): cycled through mitosis and entered G1; also recorded: abrogates HA-induced mitotic arrest | time to arrest in the next mitosis after release from aphidicolin [9]: ≤ 12 h | mitotic index of the loosely adherent population (MB-MDA 468 cells [10]; MB-MDA 468, enriched for mitotically arrested cells): greater than 90% | mitotic index (cells in mitosis) (MB-MDA 468 cells [10]; MB-MDA 468 cells, treated population, control 5-10%): 60-70% | cyclin A-associated kinase activity [4]: slightly lower | cell cycle effect in E6/E7 transfectants [11]: arrested with 4n DNA content; also recorded: mitotic arrest and not G1 arrest | cell cycle effect in tumor cell lines [2]: growth arrest in G1 | cyclin B1 protein expression [12]: increased | cyclin A expression (cyclin A expression): slightly lower
